From ChEMBL document CHEMBL4145534, “Computer-aided insights into receptor-ligand interaction for novel 5-arylhydantoin derivatives as serotonin 5-HT7 receptor agents with antidepressant activity” (Eur J Med Chem, 2018)

How the values were obtained:
[1] = target: T1, Adrenergic receptor alpha-2 (Rattus norvegicus, UniProt P22086+P19328+P22909); test: Displacement of [3H]-clonidine from alpha2-adrenergic receptor in rat brain cortex after 30 mins by Microbeta scintillation counting method
T1 sequence (P22086 whole entry): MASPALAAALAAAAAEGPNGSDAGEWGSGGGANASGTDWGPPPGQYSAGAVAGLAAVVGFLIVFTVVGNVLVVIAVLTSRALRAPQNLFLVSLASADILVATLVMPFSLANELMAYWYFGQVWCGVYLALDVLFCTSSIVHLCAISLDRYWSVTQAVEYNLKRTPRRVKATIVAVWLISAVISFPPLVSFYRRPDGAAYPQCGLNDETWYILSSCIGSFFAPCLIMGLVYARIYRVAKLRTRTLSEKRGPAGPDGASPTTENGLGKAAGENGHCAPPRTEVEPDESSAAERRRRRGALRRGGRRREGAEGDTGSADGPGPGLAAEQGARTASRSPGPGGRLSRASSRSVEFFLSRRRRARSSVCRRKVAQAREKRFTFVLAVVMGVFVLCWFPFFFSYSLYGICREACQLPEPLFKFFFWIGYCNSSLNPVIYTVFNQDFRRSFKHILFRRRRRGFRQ
T1 sequence (P19328 whole entry): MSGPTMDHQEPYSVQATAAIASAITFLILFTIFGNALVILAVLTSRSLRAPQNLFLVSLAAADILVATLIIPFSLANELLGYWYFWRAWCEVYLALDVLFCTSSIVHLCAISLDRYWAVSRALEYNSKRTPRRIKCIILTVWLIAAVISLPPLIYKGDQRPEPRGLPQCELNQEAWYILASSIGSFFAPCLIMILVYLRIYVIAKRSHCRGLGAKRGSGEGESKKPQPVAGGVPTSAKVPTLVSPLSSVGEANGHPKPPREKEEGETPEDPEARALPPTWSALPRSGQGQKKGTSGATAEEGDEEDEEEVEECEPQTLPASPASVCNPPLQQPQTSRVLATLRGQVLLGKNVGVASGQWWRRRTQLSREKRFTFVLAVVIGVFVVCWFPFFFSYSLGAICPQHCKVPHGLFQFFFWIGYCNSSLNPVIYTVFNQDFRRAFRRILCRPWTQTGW
T1 sequence (P22909 whole entry): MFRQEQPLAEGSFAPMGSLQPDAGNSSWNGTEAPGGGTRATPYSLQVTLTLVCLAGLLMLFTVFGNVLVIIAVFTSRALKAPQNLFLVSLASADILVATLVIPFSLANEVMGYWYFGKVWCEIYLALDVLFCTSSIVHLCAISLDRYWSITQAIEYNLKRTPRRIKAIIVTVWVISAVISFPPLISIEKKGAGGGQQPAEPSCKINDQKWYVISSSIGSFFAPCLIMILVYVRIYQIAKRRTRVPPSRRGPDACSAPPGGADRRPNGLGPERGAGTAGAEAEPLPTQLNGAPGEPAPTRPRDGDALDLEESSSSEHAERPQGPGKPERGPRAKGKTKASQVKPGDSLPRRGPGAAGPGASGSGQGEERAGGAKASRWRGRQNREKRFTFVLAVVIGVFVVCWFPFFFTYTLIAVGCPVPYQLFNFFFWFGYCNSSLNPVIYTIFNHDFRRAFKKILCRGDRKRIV

[2] = target: T2, Adrenergic receptor alpha-1 (Rattus norvegicus, UniProt P15823+P23944+P43140); test: Displacement of [3H]-prazosin from alpha1-adrenergic receptor in rat brain cortex after 30 mins by Microbeta scintillation counting method
T2 sequence (P15823 whole entry): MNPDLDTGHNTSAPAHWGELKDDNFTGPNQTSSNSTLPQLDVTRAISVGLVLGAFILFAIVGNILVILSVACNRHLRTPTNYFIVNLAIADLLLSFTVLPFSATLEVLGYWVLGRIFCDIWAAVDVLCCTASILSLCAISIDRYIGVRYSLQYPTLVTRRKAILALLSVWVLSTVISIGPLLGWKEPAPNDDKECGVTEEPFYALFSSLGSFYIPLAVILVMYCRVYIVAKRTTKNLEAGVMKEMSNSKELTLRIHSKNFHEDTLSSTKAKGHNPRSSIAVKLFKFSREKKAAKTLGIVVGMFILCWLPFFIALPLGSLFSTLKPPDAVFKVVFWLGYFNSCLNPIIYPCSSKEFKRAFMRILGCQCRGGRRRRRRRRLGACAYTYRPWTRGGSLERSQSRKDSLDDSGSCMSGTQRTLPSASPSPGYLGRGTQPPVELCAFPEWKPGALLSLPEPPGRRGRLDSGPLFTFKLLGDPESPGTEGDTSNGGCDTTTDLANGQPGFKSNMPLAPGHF
T2 sequence (P23944 whole entry): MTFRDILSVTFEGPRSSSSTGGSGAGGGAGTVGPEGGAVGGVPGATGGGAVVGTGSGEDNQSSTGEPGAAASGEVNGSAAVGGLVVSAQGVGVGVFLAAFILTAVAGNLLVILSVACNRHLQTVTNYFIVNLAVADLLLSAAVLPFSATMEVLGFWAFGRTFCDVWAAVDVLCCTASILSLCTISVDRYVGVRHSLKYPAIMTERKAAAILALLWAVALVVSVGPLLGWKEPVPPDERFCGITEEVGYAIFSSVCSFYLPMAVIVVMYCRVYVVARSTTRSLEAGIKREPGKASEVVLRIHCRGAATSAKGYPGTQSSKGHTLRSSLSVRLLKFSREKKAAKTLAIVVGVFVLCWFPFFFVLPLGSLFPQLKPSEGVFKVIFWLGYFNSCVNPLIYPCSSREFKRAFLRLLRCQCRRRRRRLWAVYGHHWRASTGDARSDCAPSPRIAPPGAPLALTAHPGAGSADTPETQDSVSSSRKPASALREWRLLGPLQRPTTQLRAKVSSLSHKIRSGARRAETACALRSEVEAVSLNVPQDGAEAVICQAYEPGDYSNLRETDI
T2 sequence (P43140 whole entry): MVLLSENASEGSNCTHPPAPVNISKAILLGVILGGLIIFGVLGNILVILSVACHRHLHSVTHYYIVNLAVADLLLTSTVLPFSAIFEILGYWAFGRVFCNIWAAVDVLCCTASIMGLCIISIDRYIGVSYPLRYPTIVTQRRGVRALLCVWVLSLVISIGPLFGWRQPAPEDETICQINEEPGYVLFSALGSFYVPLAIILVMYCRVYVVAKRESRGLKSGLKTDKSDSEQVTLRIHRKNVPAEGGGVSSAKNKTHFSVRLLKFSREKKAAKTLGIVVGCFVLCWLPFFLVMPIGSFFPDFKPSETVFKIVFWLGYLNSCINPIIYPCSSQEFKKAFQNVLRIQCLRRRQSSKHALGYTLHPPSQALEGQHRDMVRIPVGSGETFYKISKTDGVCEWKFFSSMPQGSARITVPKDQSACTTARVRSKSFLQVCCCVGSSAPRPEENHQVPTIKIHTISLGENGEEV

[3] = target: Beta-1 adrenergic receptor (Rattus norvegicus, UniProt P18090); test: Displacement of [3H]-CGP-12177 from beta1-adrenergic receptor in rat brain cortex after 1 hr by Microbeta scintillation counting method
[4] = target: D(2) dopamine receptor (Homo sapiens, UniProt P14416); test: Displacement of [3H]-raclopride from human D2L receptor expressed in HEK293 cell membranes after 1 hr by Microbeta scintillation counting method
Sequence of D(2) dopamine receptor (P14416 whole entry): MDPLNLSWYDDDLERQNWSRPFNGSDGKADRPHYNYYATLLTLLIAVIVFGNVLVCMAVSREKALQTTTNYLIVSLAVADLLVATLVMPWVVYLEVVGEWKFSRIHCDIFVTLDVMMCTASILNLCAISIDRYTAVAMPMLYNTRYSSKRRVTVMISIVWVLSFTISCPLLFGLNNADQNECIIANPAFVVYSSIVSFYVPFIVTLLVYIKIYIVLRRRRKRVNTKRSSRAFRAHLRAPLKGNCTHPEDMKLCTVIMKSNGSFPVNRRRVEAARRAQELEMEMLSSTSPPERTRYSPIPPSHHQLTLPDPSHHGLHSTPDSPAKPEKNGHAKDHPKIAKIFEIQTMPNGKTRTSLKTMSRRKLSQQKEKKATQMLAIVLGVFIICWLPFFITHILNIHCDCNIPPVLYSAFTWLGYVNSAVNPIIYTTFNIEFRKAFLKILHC

Sequence of Beta-1 adrenergic receptor (P18090 whole entry): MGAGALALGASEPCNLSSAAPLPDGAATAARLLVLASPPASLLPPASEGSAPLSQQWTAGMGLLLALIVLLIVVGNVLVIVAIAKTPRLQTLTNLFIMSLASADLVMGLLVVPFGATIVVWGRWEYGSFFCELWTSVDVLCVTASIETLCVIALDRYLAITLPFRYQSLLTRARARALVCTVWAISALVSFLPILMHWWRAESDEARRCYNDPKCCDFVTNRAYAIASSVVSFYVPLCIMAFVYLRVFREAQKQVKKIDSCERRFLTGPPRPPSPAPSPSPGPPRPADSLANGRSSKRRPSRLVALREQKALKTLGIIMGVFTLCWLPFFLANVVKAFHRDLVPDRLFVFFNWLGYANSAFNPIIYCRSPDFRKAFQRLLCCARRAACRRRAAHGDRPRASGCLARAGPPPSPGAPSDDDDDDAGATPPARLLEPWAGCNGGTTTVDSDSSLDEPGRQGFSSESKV

SMILES: CC1(c2ccc(Cl)cc2)NC(=O)N(CC(O)CN2CCN(c3ccccc3C#N)CC2)C1=O.Cl (racemic)
- Ki [1]: > 10000 nM
- Ki [2]: 250 nM
- Ki [3]: > 10000 nM
- Ki [4]: 1280 nM

SMILES: CC1(c2ccc(Br)cc2)NC(=O)N(CC(O)CN2CCN(c3ccccc3C#N)CC2)C1=O.Cl (racemic)
- Ki [1]: > 5000 nM
- Ki [2]: 200 nM
- Ki [3]: > 10000 nM
- Ki [4]: 506 nM

SMILES: COc1ccccc1N1CCN(CC(O)CN2C(=O)NC(C)(c3ccc(Br)cc3)C2=O)CC1.Cl (racemic)
- Ki [1]: > 5000 nM
- Ki [2]: 167 nM
- Ki [3]: > 10000 nM
- Ki [4]: 267 nM
